Experimental data as given in patent publication EP3325012B1, “CINEOLE-CONTAINING COMPOSITION FOR TREATING NOSE POLYPS” (Maria Clementine Martin Klosterfrau Vertriebsgesellschaft …, priority 2015, dated 2017).
Entries after “also recorded” stand apart in the source; their conditions may differ.

Legend:
[1] = test system: WIF-1; conditions: Colon-Ca-Zelllinien; cited from earlier work
[2] = test system: beta-Catenin; assay: Anti-(active-)beta-catenin immunohistochemistry on polyp single-cell suspensions (chamber slides); assay type: cell-based, Mensch; conditions: 24 h incubation
Method: Im entzündlichen Infiltrat des Polyposisgewebes ließ sich immunhistochemisch nukleäres beta-Catenin nachweisen.
Es wurde eine Anti-Active-beta-Catenin-Immunhistochemie auf mit dem GSK-3-Inhibitor SB216763 für 24 h inkubierter Polyposis-Einzelzellsuspension (Chamber Slide) durchgeführt.

[3] = test system: Polyposis-Primärgewebe; assay: Cytokine release from polyposis primary tissue; assay type: cell-based, Mensch; conditions: incubation of primary tissue

In the case of `CC(=O)Oc1ccccc1C(=O)O` [Acetylsalicylsäure], the “Regulation von WIF-1” value [1] is listed as “Hochregulation”.

For `Cn1cc(C2=C(c3ccc(Cl)cc3Cl)C(=O)NC2=O)c2ccccc21` [SB216763], the “Akkumulation von beta-Catenin im Zytoplasma” value [2] was “Akkumulation von beta-Catenin im Zytoplasma; also recorded: deutliche Anreicherung”, the “Translokation von beta-Catenin in den Zellkern” value [2] was “Translokation von beta-Catenin in den Zellkern” and the “Ausschüttung von IL-6” value [3] was “verminderte Ausschüttung”. For the same molecule, the “Ausschüttung von IL-8” value [3] was “verminderte Ausschüttung”.
